Earlier results as cited in patent publication US20210275440A1, “MICROBEAD COMPOSITIONS AND METHODS FOR DELIVERING AN AGENT” (THE UNIVERSITY OF MEMPHIS RESEARCH FOUNDATION, priority 2016, published 2021).

Conditions: intra-articular administration

Structure (SMILES): CN[C@H](CC(C)C)C(=O)N[C@H]1C(=O)N[C@@H](CC(N)=O)C(=O)N[C@H]2C(=O)N[C@H]3C(=O)N[C@H](C(=O)N[C@H](C(=O)O)c4cc(O)cc(O)c4-c4cc3ccc4O)[C@H](O)c3ccc(c(Cl)c3)Oc3cc2cc(c3O[C@@H]2O[C@H](CO)[C@@H](O)[C@H](O)[C@H]2O[C@H]2C[C@](C)(N)[C@H](O)[C@H](C)O2)Oc2ccc(cc2Cl)[C@H]1O (atropisomer, axis not shown) [vancomycin]
- half-life: 3 h
- time therapeutic levels in joint and serum were maintained: 24 h
